Source: paper PMC6713424 (Journal of Medicinal Chemistry, 2019)
Entries after “also recorded” stand apart in the source; their conditions may differ.

How the values were obtained:
[1] = test system: HSC-2 human oral cancer cells; assay: MTT cell proliferation assay in HSC-2 cells; assay type: cell-based; conditions: HSC-2, 1-100 μM, 24, 48 and 72 h
[2] = test system: NNMT activity (MNA production) in HSC-2 cells; assay: Cellular MNA levels in HSC-2 cells; assay type: cell-based, human; conditions: HSC-2, 100 μM, 72 h; same effect in DMSO control

Compound	effect on cell proliferation (in words) [1]	cellular MNA production (in words) [2]
NC(=O)c1cccc(CN(CC[C@H](N)C(=O)O)C[C@H]2O[C@@H](n3cnc4c(N)ncnc43)[C@H](O)[C@@H]2O)c1 [Compound 1]	not significantly inhibited	–
Nc1ncnc2c1ncn2[C@@H]1O[C@H](CN(CC[C@H](N)C(=O)O)Cc2ccc3ccccc3c2)[C@@H](O)[C@H]1O [Compound 78, (S)-2-Amino-4-((((2R,3S,4R,5R)-5-(6-amino-9H-purin-9-yl)-3,4-dihydroxytetrahydrofuran-2-yl)methyl)(naphthalen-2-ylmethyl)amino)butanoic Acid]	notable decrease in cell proliferation; also recorded: significant inhibitory effect on cell proliferation	increase in cellular MNA production
Nc1ncnc2c1ncn2[C@@H]1O[C@H](CN(CCC[C@H](N)C(=O)O)Cc2ccc3ccccc3c2)[C@@H](O)[C@H]1O [Compound 81, (S)-2-Amino-5-((((2R,3S,4R,5R)-5-(6-amino-9H-purin-9-yl)-3,4-dihydroxytetrahydrofuran-2-yl)methyl)(naphthalen-2-ylmethyl)amino)pentanoic Acid]	not significantly inhibited	–
